The numbers were not newly measured in US20010053349A1, “Artificial nail sanitizing solution” (priority 2000, published 2001), which cites them from elsewhere.

The data set concerns nail fungus. The following applies: oral compounds; average; treatment of documented nail fungus.

For `CN(C/C=C/C#CC(C)(C)C)Cc1cccc2ccccc12` [terbinafine], the “Clinical and mycological cure rates” value was 70%.
